Patent US20260285853A1, “COMPOUNDS AND METHODS FOR MODULATING SPLICING” (REMIX THERAPEUTICS INC., priority 2023, published 2026)
pIC50: −log10 of the molar value.

Columns and labels:
Type in all cases: cell-based
MYB mRNA [1] = assay: Splicing RT-qPCR assay (THP), Table 2A; conditions: Table 2A (THP); for AC50: AJ mRNA increase, read-out: MYB AJ (increase in alternative junction mRNA, AC50); for pIC50: CJ mRNA decrease, read-out: MYB CJ (decrease in canonical junction mRNA, IC50)
[2] = test system: SH-SY5Y (human neuroblastoma) cells; assay: Cell viability, Cell Titer Glo 2.0 assay; conditions: read-out: Viability SHSY5Y.3 GI50
How it was run: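 Toxicity screen in SH-SY5Y cells. Compounds were serially diluted in DMSO and then in medium, giving 0.1% DMSO final. Viability was read with CellTiter-Glo 2.0 after 72 h at 37 °C, 5% CO2, against medium-only blank wells.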

HTT mRNA [3] = assay: Gene panel canonical junction qPCR assay, decrease in CJ mRNA, Table 3; conditions: decrease in canonical junction (CJ) mRNA, gene panel qPCR, Table 3
How it was run: (§1)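 A673 (DMEM, 10% FBS, 15,000 cells/well) or K562 (IMDM, 10% FBS) cells treated 24 h at 37 °C with 11-point 3-fold dilutions, top 10 uM, DMSO ≤0.25%. Canonical exon-exon junction mRNA measured by RT-qPCR, normalized to GAPDH, GUSB or PPIA and DMSO (ΔΔCt); IC50 from 4-parameter logistic fit.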

MYB mRNA [4] = assay: as above; conditions: decrease in canonical junction (CJ) mRNA, gene panel qPCR, Table 3
How it was run: as §1

HTT mRNA [5] = assay: Splicing RT-qPCR assay (THP), Table 2A; conditions: Table 2A (THP); for AC50: AJ mRNA increase, read-out: HTT AJ (increase in alternative junction mRNA, AC50); for pIC50: CJ mRNA decrease, read-out: HTT CJ (decrease in canonical junction mRNA, IC50)

Row | SMILES | AC50 (MYB mRNA [1]) [µM] | pIC50 (MYB mRNA [1]) | GI50 [2] [µM] | pIC50 (HTT mRNA [3]) | pIC50 (MYB mRNA [4]) | AC50 (HTT mRNA [5]) [µM] | pIC50 (HTT mRNA [5])
1 | Cc1cn2cc(NC(=O)c3c(F)cc(N4CC5(CNC5)C4)c4cn(C)nc34)nc2c(C)n1 [Compound 470, 4-(2,6-diazaspiro[3.3]heptan-2-yl)-N-(6,8-dimethyl-imidazo-[1,2-a]-pyrazin-2-yl)-6-fluoro-2-methyl-indazole-7-carboxamide] | 0.1 to 1 | 6.00 to 7.00 | 0.1 to 1 | 6.00 to 7.00 | 6.00 to 7.00 | 0.1 to 1 | 6.00 to 7.00
2 | CCNCC1CCN(c2cc(F)c(C(=O)Nc3cn4cc(C)nc(C)c4n3)c3nn(C)cc23)C1 (stereo not shown) [Compound 471, N-(6,8-dimethylimidazo-[1,2-a]-pyrazin-2-yl)-4-(3-[(ethylamino)methyl]-pyrrolidin-1-yl)-6-fluoro-2-methyl-indazole-7-carboxamide] | 0.1 to 1 | 6.00 to 7.00 | 1 to 10 | < 5.00 | 6.00 to 7.00 | > 10 | < 5.00
3 | COc1cc2nn(C)cc2cc1NC(=O)c1c(C)cc(N2CCC(NC3CC3)CC2)c2cn(C)nc12 [Compound 472, 4-[4-(cyclopropylamino)-1-piperidyl]-N-(6-methoxy-2-methyl-indazol-5-yl)-2,6-dimethylindazole-7-carboxamide] | 1 to 10 | < 5.00 | 1 to 10 | < 5.00 | < 5.00 | > 10 | < 5.00
4 | Cc1cn2cc(NC(=O)c3c(C)cc(N4CCC(NC5CC5)CC4)c4cn(C)nc34)nc2c(C)n1 [Compound 473, 4-[4-(cyclopropylamino)-1-piperidyl]-N-(6,8-dimethylimidazo[1,2-a]pyrazin-2-yl)-2,6-dimethyl-indazole-7-carboxamide] | > 10 | < 5.00 | > 10 | < 5.00 | < 5.00 | > 10 | < 5.00
5 | Cc1cn2cc(NC(=O)c3c(C4CC4)cc(N4CCC(NC5CC5)CC4)c4cn(C)nc34)nc2c(C)n1 [Compound 474, 6-cyclopropyl-4-[4-(cyclopropylamino)-1-piperidyl]-N-(6,8-dimethyl-imidazo[1,2-a]-pyrazin-2-yl)-2-methyl-indazole-7-carboxamide] | > 10 | < 5.00 | 1 to 10 | < 5.00 | < 5.00 | > 10 | < 5.00
6 | COc1cn2nc(C)cc2cc1NC(=O)c1ccc(N2CCC(NC3CC3)CC2)c2cn(C)nc12 [Compound 475, 4-[4-(cyclopropylamino)-1-piperidyl]-N-(6-methoxy-2-methyl-pyrazolo[1,5-a]pyridin-5-yl)-2-methyl-indazole-7-carboxamide] | 0.1 to 1 | 6.00 to 7.00 | 1 to 10 | < 5.00 | 6.00 to 7.00 | > 10 | < 5.00
7 | Cn1cc2cc(NC(=O)c3ccc(N4CCC(NC5CC5)CC4)c4cn(C)nc34)c(C(F)(F)F)cc2n1 [Compound 476, 4-[4-(cyclopropyl-amino)-1-piperidyl]-2-methyl-N-[2-methyl-6-(trifluoromethyl)-indazol-5-yl]indazole-7-carboxamide] | 1 to 10 | 5.00 to 6.00 | > 10 | < 5.00 | 5.00 to 6.00 | > 10 | < 5.00
8 | COc1cc2nn(C)cc2cc1NC(=O)c1ccc(N2CCC(NC3CC3)CC2)c2c(F)n(C)nc12 [Compound 477] | 0.1 to 1 | 6.00 to 7.00 | 0.1 to 1 | 6.00 to 7.00 | 6.00 to 7.00 | 0.1 to 1 | 6.00 to 7.00
9 | Cc1cn2cc(NC(=O)c3ccc(N4CCC(NC5CC5)CC4)c4cn(C)nc34)c(F)c2c(C)n1 [Compound 478, 4-[4-(cyclopropyl-amino)-1-piperidyl]-N-(8-fluoro-1,3-dimethyl-pyrrolo[1,2-a]-pyrazin-7-yl)-2-methyl-indazole-7-carboxamide] | > 10 | < 5.00 | 1 to 10 | < 5.00 | < 5.00 | > 10 | < 5.00
10 | Cc1cn2cc(NC(=O)c3ccc(N4CCC(NC5CC5)CC4)c4cn(C)nc34)nc2c(Cl)n1 [Compound 479, N-(8-chloro-6-methyl-imidazo[1,2-a]-pyrazin-2-yl)-4-[4-(cyclopropylamino)-1-piperidyl]-2-methyl-indazole-7-carboxamide] | 0.1 to 1 | 6.00 to 7.00 | 1 to 10 | < 5.00 | 6.00 to 7.00 | > 10 | < 5.00
11 | Cn1cc2c(N3CCC(NC4CC4)CC3)cc(F)c(C(=O)Nc3ccc4c(c3)COB4O)c2n1 [Compound 481, 4-(4-(cyclopropyl-amino)piperidin-1-yl)-6-fluoro-N-(1-hydroxy-1,3-dihydrobenzo[c][1,2]-oxaborol-5-y1)-2-methyl-2H-indazole-7-carboxamide 2,2,2-trifluoroacetate] | 1 to 10 | < 5.00 | 1 to 10 | < 5.00 | < 5.00 | > 10 | < 5.00
12 | Cn1cc2c(N3CCC(NC4CC4)CC3)cc(F)c(C(=O)Nc3ccc4c(c3)B(O)OC4)c2n1 [Compound 482, 4-[4-(cyclopropyl-amino)-1-piperidy1]-6-fluoro-N-(1-hydroxy-3H-2,1-benzoxaborol-6-y1)-2-methyl-indazole-7-carboxamide 2,2,2-trifluoroacetate] | > 10 | < 5.00 | 1 to 10 | < 5.00 | < 5.00 | > 10 | < 5.00
13 | Cc1cc2cc(NC(=O)c3ccc(N4CCC(NC5CC5)CC4)c4cn(C)nc34)sc2c(C)n1 [Compound 483, 4-[4-(cyclopropyl-amino)-1-piperidyl]-N-(5,7-dimethyl-thieno[2,3-c]-pyridin-2-yl)-2-methyl-indazole-7-carboxamide] | > 10 | < 5.00 | 0.1 to 1 | < 5.00 | < 5.00 | > 10 | < 5.00
14 | Cc1cc2cc(NC(=O)c3c(F)cc(N4CCC(NC5CC5)CC4)c4cn(C)nc34)sc2c(C)n1 [Compound 484, 4-[4-(cyclopropyl-amino)-1-piperidyl]-N-(5,7-dimethyl-thieno[2,3-c]pyridin-2-yl)-6-fluoro-2-methyl-indazole-7-carboxamide] | > 10 | < 5.00 | 1 to 10 | < 5.00 | < 5.00 | > 10 | < 5.00
15 | COc1cc2nn(C)cc2cc1NC(=O)c1ccc(N2CCC(NC3CC3)CC2)c2c(C)n(C)nc12 [Compound 485, 4-[4-(cyclopropylamino)-1-piperidyl]-N-(6-methoxy-2-methyl-indazol-5-yl)-2,3-dimethyl-indazole-7-carboxamide] | 0.1 to 1 | 6.00 to 7.00 | 0.1 to 1 | 6.00 to 7.00 | 6.00 to 7.00 | 0.1 to 1 | 6.00 to 7.00
16 | Cc1cn2cc(NC(=O)c3ccc(N4CCC(NC5CC5)CC4)c4cn(C)nc34)nc2c(-c2ccns2)n1 [Compound 486, 4-(4-(cyclopropylamino)-piperidin-1-yl)-N-(8-(isothiazol-5-yl)-6-methyl-imidazo[1,2-a]-pyrazin-2-yl)-2-methyl-2H-indazole-7-carboxamide] | > 10 | < 5.00 | 1 to 10 | < 5.00 | < 5.00 | > 10 | < 5.00
17 | Cc1cn2cc(NC(=O)c3ccc(N4CCC(NC5CC5)CC4)c4cn(C)nc34)nc2c(-c2ccn[nH]2)n1 [Compound 487, 4-(4-(cyclopropyl-amino)piperidin-1-yl)-2-methyl-N-(6-methyl-8-(1H-pyrazol-5-yl)imidazo[1,2-a]-pyrazin-2-yl)-2H-indazole-7-carboxamide 2,2,2-trifluoroacetate] | > 10 | < 5.00 | 1 to 10 | 5.00 to 6.00 | < 5.00 | > 10 | 5.00 to 6.00
18 | COc1cn2nc(C)cc2cc1C(=O)Nc1ccc(N2CCNCC2)c2cn(C)nc12 [Compound 488, 6-methoxy-2-methyl-N-(2-methyl-4-piperazin-1-yl-indazol-7-yl) pyrazolo[1,5-a]pyridine-5-carboxamide] | > 10 | < 5.00 | > 10 | < 5.00 | < 5.00 | > 10 | < 5.00
19 | COc1cc2nn(C)cc2cc1C(=O)Nc1ccc(N2CCNCC2)c2cn(C)nc12 [Compound 489, 6-methoxy-2-methyl-N-(2-methyl-4-piperazin-1-yl-indazol-7-yl)-indazole-5-carboxamide] | > 10 | < 5.00 | > 10 | < 5.00 | < 5.00 | > 10 | < 5.00
